PubChem BioAssay AID179 (DTP/NCI, 2004)
Activity calls are given as the source filed them.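 How the source made its calls: active means compounds giving half or more protection of infected cells from virus-caused growth loss, again on retest; inactive means the rest.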

System: CEM cells HIV-1 protection, formazan growth assay
Assay: NCI AIDS Antiviral Assay
Conditions: for IC50: measured here: growth of uninfected CEM cells
Method in brief: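 Human CEM cells, uninfected and HIV-1-infected, exposed to five drug concentrations; growth measured by soluble formazan assay and scored as percent protection from infection, with protecting compounds retested.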

Compound	EC50	IC50	outcome
COc1nc(OC)nc(Sc2ccc(Sc3ccc(Sc4nc(OC)nc(OC)n4)cc3)cc2)n1	> 13.5 µM	> 13.5 µM	
C/C(CN1C(=O)c2ccccc2C1=O)=N\NS(=O)(=O)c1ccc2ccccc2c1	> 447 µM	> 447 µM	
C=CCN(N=O)C(=O)NCCCC(NC(C)=O)C(=O)NCc1ccccc1 (stereo not drawn)	> 661 µM	> 661 µM	
CCCc1cc(=O)oc2c(C=O)c(O)cc(O)c12	> 200 µM	63.1 µM	
CCCN(CCC)CCCOC(=O)c1ccc2oc3ccc(C(=O)OCCCN(CCC)CCC)cc3c2c1	> 112 µM	6.61 µM	
Nc1ccc(C(=O)N/C(=C\c2ccc3c(c2)OCO3)c2nc3ccccc3s2)cc1			inactive
FC1=C2CCCCCC2SC1(F)F (stereo not drawn)	> 200 µM	32.4 µM	
Cc1ccccc1-n1c(=O)nc2n(-c3ccc(C(C)(C)C)cc3)c3ccccc3cc-2c1=O	> 200 µM	14.1 µM	
O=C1CC(C(O)(C(F)(F)F)C(F)(F)Cl)CCC1C(O)(C(F)(F)F)C(F)(F)Cl (stereo not drawn)			inactive
CCCCCCCCCCCCCP(=O)(OC)OC			inactive
O=C1NCN(c2ccccc2)C12CCN(CC1COc3ccccc3O1)CC2 (stereo not drawn)	> 200 µM	> 200 µM	
O=C(Nc1nc2ccccc2n1Cc1ccccc1)C(=O)NC12CC3CC(CC(C3)C1)C2	> 43.7 µM	> 43.7 µM	
S=C(NNC1=NCCN1)Nc1ccccc1	> 200 µM	2.82 µM	
COc1cc(O)cc2c1C(=O)C(C)O2 (stereo not drawn)	> 200 µM	> 200 µM	
O=c1[nH]c(NCc2cccnc2)nc2nc[nH]c12	> 200 µM	> 200 µM	
CCCCCCCCCCCCCCCCCC(=O)OCC(CO)OC(=O)CCCCCCCCCCCCCCCCC (stereo not drawn)			inactive
COC(=O)c1cc2c(c(C(=O)OC)c1)CCC2	> 200 µM	40.7 µM	
O=C1C(Cl)=C(Cl)C(=O)N1C1C2CC3CC(C2)CC1C3 (stereo not drawn)			inactive
O=[N+]([O-])c1ccc(S(=O)(=O)c2ccc([N+](=O)[O-])cc2C(F)(F)F)c(C(F)(F)F)c1			inactive
BrCC[N+]12CC[N+](CCBr)(CC1)C2	> 525 µM	25.7 µM	
Nc1ccc(S(=O)(=O)Nc2nc3ccccc3nc2N2CCCCC2)cc1	> 200 µM	72.4 µM	
CN1C2CCC1CC(OC(=O)C1CCC(C(=O)OC3CC4CCC(C3)N4C)(c3ccccc3)c3ccccc31)C2 (stereo not drawn)	> 200 µM	6.46 µM	

Compound	EC50	IC50	outcome
CC(=O)Nc1nnc2c3ccccc3n(C(C)=O)c2n1	> 200 µM	3.55 µM	
CC(=O)Nc1cc(N=Nc2ccc(N=Nc3ccc(NC(=O)c4ccc(N)cc4)cc3C)cc2C)c(S(=O)(=O)O)cc1N=Nc1ccc(S(=O)(=O)O)cc1	12.9 µM	155 µM	
CCOC(=O)c1oc2c(OC)cc(Cl)c3c2c1CCC3			inactive
COc1ccc(CNc2nc3c(NC(C)=O)cc(C(F)(F)F)cc3nc2-c2ccccc2)cc1OC	> 10.5 µM	> 10.5 µM	
c1ccc(C2N3CCCCC3[C@@H]3c4[nH]c5ccccc5c4CCN23)nc1 (stereo partly drawn)	> 105 µM	> 105 µM	
c1ccc(-c2nc3ccccc3nc2-c2ccccn2)nc1	> 200 µM	> 200 µM	
Cn1c(=O)c(CC(C(=O)O)C(=O)O)nc2ccccc21	> 200 µM	> 200 µM	
CC(C)(C)[Si](C)(C)OC[C@H]1O[C@@H](n2ccc(=O)[nH]c2=O)[C@H](O[Si](C)(C)C(C)(C)C)[C@]1(O)[C@H](Cl)C(N)=O	> 200 µM	3.72 µM	
CC1=CC(C)S(=O)(=O)C1 (stereo not drawn)	> 200 µM	> 200 µM	
C[C@@H]1CC(=O)[C@@]2(C)[C@](O)(CCC3O[C@]32C)[C@@]12CC(c1ccoc1)OC2=O (stereo partly drawn)	> 200 µM	30.9 µM	
N#CC1Cc2cc3c(cc21)OCO3 (stereo not drawn)	> 200 µM	> 200 µM	
COc1cccc(N/C(C)=C2/CCOC2=O)c1	> 200 µM	105 µM	
CCCCc1ccc(C(N)=O)nc1	> 200 µM	> 200 µM	
[N-]=[N+]=NCc1nc(N)c2c3c(sc2n1)CCCC3	> 200 µM	1.12 µM	
OCCCCCCOc1ccc(-c2cc(-c3ccccn3)nc(-c3ccccn3)c2)cc1	> 12.3 µM	1.91 µM	
NC1=NN(c2ccccc2)C2(O)c3ccncc3C3=NN(c4ccccc4)C(=O)C132 (stereo not drawn)	> 200 µM	> 200 µM	
O=C(O)C1C2C=CC(C2)C1c1c2ccc(=O)c(O)c-2oc2c(O)c(O)ccc12 (stereo not drawn)	> 200 µM	26.3 µM	
CN1CC[C@]2(C)c3c(O)cccc3CC3CCCC1C32C (stereo partly drawn)			inactive
O=C(CSc1nnc(Cc2ccccc2)o1)Nc1ccc(Cl)cc1[N+](=O)[O-]	> 617 µM	25.1 µM	
Cc1cc2cc3cc(C)c(N)cc3nc2cc1N	> 2 µM	0.661 µM	
Cc1noc(/N=C2\C=C(Nc3onc(C)c3C)C(=O)c3ccccc32)c1C	> 2.75 µM	> 2.75 µM	
